# Values joined by “and” are separate entries in the source; they are usually repeats but may differ in a detail not shown here. Equal entries are not always repeated. “Also recorded” adds a separate entry of the source. Where two headings read alike, the source gives them in different places.
# Legend:
# hPHGDH [1] = molecular target: T1, hPHGDH (Homo sapiens, UniProt O43175); assay: Inhibition of hPHGDH activity by inhibitors (hydrazine assay); assay type: biochemical; set-up: His-tagged full-length hPHGDH was expressed in BL21(DE3) E. coli cells; made in house; host or cells: E. coli BL21(DE3); details: kinetics on 3PG at increasing inhibitor concentration
# T1 sequence (O43175 1-533): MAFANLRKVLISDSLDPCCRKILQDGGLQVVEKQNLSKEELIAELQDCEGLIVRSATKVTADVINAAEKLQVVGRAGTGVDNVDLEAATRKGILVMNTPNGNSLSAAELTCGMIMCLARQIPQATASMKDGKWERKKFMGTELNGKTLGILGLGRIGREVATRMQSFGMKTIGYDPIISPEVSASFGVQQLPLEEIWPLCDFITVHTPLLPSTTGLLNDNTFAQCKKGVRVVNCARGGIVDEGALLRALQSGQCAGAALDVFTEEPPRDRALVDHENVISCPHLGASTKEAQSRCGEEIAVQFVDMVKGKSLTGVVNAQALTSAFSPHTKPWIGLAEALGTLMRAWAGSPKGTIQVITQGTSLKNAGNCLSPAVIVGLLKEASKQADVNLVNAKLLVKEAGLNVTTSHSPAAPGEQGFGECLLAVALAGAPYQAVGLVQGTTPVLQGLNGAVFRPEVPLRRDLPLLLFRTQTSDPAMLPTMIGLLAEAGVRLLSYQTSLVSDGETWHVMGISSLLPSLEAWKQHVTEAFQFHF
# hPHGDH [2] = molecular target: T1, hPHGDH; assay: Limited proteolysis with trypsin, SDS-PAGE; set-up: His-tagged full-length hPHGDH was expressed in BL21(DE3) E. coli cells; made in house; host or cells: E. coli BL21(DE3); details: 5% (w/w) trypsin; 250 mM potassium phosphate, 500 mM sodium tartrate or 0.1 mM NCT-503
# Protocol: hPHGDH at 0.4 mg/mL was incubated at 25 °C in 50 mM Hepes pH 7.5, 100 mM NaCl, 10% (v/v) glycerol, 1 mM EDTA and 5 mM 2-mercaptoethanol in the presence of 5% (w/w) trypsin (Roche, Basel, Switzerland). […] At different times (0, 30, 60, 120 and 240 min), 8 µg of protein was diluted in SDS-sample buffer, heated at 95 °C for 5 min and analyzed by SDS-PAGE.
# hPHGDH [3] = molecular target: T1, hPHGDH; assay: hPHGDH forward reaction kinetics (PSAT-coupled or hydrazine assay, NADH fluorescence); assay type: biochemical; set-up: His-tagged full-length hPHGDH was expressed in BL21(DE3) E. coli cells; made in house; host or cells: E. coli BL21(DE3)
# Protocol: PSAT was added to drive the reaction and to avoid product inhibition of hPHGDH.
# (§1) The latter assay was used to determine the apparent kinetic parameters on alternative substrates.
# hPHGDH [4] = molecular target: T1, hPHGDH; assay: Effect of salts, phosphate and serine synthesis metabolites on hPHGDH activity (hydrazine assay); assay type: biochemical; set-up: His-tagged full-length hPHGDH was expressed in BL21(DE3) E. coli cells; made in house; host or cells: E. coli BL21(DE3); details: for decrease of hPHGDH activity: […] 3PG
# Excerpt: The effects of KCl, NaCl, MgCl2 and CaCl2 and of pH and temperature on enzyme activity and stability were investigated using the hydrazine assay. […] The dependence of activity on pH was fitted using an equation for three pKa values, according to [44], providing apparent values unrelated to microscopic ones.
# hPHGDH [5] = molecular target: T1, hPHGDH; set-up: His-tagged full-length hPHGDH was expressed in BL21(DE3) E. coli cells; made in house; host or cells: E. coli BL21(DE3); details: cited from earlier work
# hPHGDH [6] = molecular target: T1, hPHGDH; assay: Temperature-ramp unfolding (melting temperature) with cofactors; assay type: binding; set-up: His-tagged full-length hPHGDH was expressed in BL21(DE3) E. coli cells; made in house; host or cells: E. coli BL21(DE3)
# Protocol: Temperature-ramp experiments were performed in 10 mM potassium phosphate, pH 7.0. For this, a software-driven, Peltier-equipped fluorimeter was used to measure the protein fluorescence change at 330 nm or a CD spectropolarimeter to follow the CD signal at 280 nm in order to reproduce a temperature gradient (0.5 °C/min) [31].
# hPHGDH [7] = molecular target: T1, hPHGDH; assay: Ligand binding by quenching of protein fluorescence at 330 nm
# Protocol: Protein fluorescence spectra were measured at 0.06–0.1 mg/mL protein concentration in 10 mM potassium phosphate, pH 7.0, 15 °C; spectra were recorded using a Jasco FP-750 instrument and were corrected for the buffer contribution. Protein fluorescence spectra were recorded between 300 and 450 nm, with excitation at 280 and 298 nm.
# All recorded spectra were subtracted for the contribution of the ligand (added to the buffer only) and were corrected for dilution at every addition. […] In all cases, Kd values were determined by fitting the data to a hyperbolic function.
# E. coli PHGDH = details: reverse reaction; cited from earlier work
# hPHGDH [8] = molecular target: T1, hPHGDH; assay: hPHGDH reverse reaction kinetics (decrease in NADH fluorescence at 450 nm); details: reverse reaction, 5 mM NADH
# Excerpt: as §1
# [9] = substrate varied, […] NAD+, hydrazine assay, Figure S3B,D-F
compound,measurement,setting,value
Cc1cc(C)nc(NC(=S)N2CCN(Cc3ccc(C(F)(F)F)cc3)CC2)c1 [NCT-503],mechanism of inhibition,hPHGDH [1],noncompetitive inhibitor; also recorded: noncompetitive inhibition mechanism
same,proteolysis of the full-length enzyme,hPHGDH [2],to a lesser extent
C[C@@H](O)C(=O)O [D-Lactate],maximal rate of Michaelis–Menten fit,hPHGDH [3]; [9],5.407
[Cl-].[Na+] [NaCl],initial activity lost,hPHGDH [4]; at >20 mM NaCl,30%
"O=C(O)C(O)COP(=O)(O)O [3PG, D-3-phosphoglycerate]",maximal rate of Michaelis–Menten fit (numerator of y = a x/(b + x)),"hPHGDH [3]; 3PG varied, 120 µM NAD+, PSAT-coupled assay, Figure S3A",1.282
same,maximal rate of Michaelis–Menten fit,"hPHGDH [3]; 3PG varied, 120 µM NAD+, hydrazine assay, Figure S3A",1.5348
same,kcat,"hPHGDH [3]; forward reaction, substrate varied, 120 µM NAD^+, PSAT-coupled (1) and hydrazine (2) assays, 37 °C, 25 mM Hepes pH 7.0, per monomer",1.5 s⁻¹
same,Km,"hPHGDH [3]; forward reaction, substrate varied, 120 µM NAD^+, PSAT-coupled (1) and hydrazine (2) assays, 37 °C, pH 7.0",260 µM
same,maximal rate of Michaelis–Menten fit,hPHGDH [3]; [9],2.972
same,Hill coefficient n,hPHGDH [5]; negative cooperativity in a previous work,0.63–0.67
O=P(O)(O)O [potassium phosphate],proteolysis of the full-length enzyme,hPHGDH [2],hampered
same,activity lost,hPHGDH [4]; at 1 mM potassium phosphate,30%
same,effect on enzymatic activity,hPHGDH [4]; at 400 mM phosphate,fully abrogated
NC(=O)c1ccc[n+]([C@@H]2O[C@H](COP(=O)(O)OP(=O)(O)OC[C@H]3O[C@@H](n4cnc5c(N)ncnc54)[C@H](O)[C@@H]3O)[C@@H](O)[C@H]2O)c1 [NAD^+],"Tm, circular dichroism signal at 280 nm","hPHGDH [6]; 120 µM NAD^+ or 100 µM NADH, protein alone 47.5",48.2 °C
same,"Tm, CD (220 nm)","hPHGDH [6]; +120 μM NAD^+ or +100 μM NADH, hPHGDH alone 47.2 ± 0.5",48.2 ± 1.7 °C
same,"Tm, Fluorescence (330 nm)","hPHGDH [6]; +120 μM NAD^+ or +100 μM NADH, hPHGDH alone 48.4 ± 2.1",52.4 °C and 52.4 ± 0.4 °C
same,Kd,"hPHGDH [7]; Kd (NAD^+; main phase of NADH binding), discussion value",~130 µM
same,Kd,"hPHGDH [7]; Kd, quenching of protein fluorescence at 15 °C, 1 μM enzyme, monophasic",130 µM
same,maximal rate of Michaelis–Menten fit,"hPHGDH [3]; NAD+ varied, 2.5 mM 3PG, PSAT-coupled assay, Figure S3C",2.039
same,maximal rate of Michaelis–Menten fit,"hPHGDH [3]; NAD+ varied, 2.5 mM 3PG, hydrazine assay, Figure S3C",2.4118
O=C(O)CCC(=O)C(=O)O [α-Ketoglutarate],Km,hPHGDH [5]; commercial enzyme preparation,~10000 µM
same,Km,E. coli PHGDH,500 µM
same,Ki,"hPHGDH [8]; Ki (substrate inhibition), 37 °C, pH 7.0",13300 µM
same,Ki,"hPHGDH [8]; Ki of fit with substrate inhibition, Figure S4A,C,D",13300 µM
[Cl-].[K+] [KCl],decrease of hPHGDH activity,"hPHGDH [4]; at 10 mM KCl, […] NAD+",40%
same,initial activity lost,hPHGDH [4]; at ≥10 mM KCl,30%
O=C([O-])C(O)C(O)C(=O)[O-].[Na+].[Na+] (centres unmarked) [sodium tartrate],proteolysis of the full-length enzyme,hPHGDH [2],hampered
CC(O)CC(=O)O [D-3-Hydroxybutyrate],maximal rate of Michaelis–Menten fit,hPHGDH [3]; [9],2.527
N[C@H](CO)C(=O)O [D-serine],decrease of hPHGDH activity,hPHGDH [4]; at 250 mM D-serine,~ 25%
O=C(O)CC(=O)C(=O)O [Oxaloacetate],maximal rate of fit with substrate inhibition,"hPHGDH [8]; Figure S4A,C,D",1.7591
O=C(O)C[C@@H](O)C(=O)O [D-Malate],maximal rate of Michaelis–Menten fit,hPHGDH [3]; [9],0.4351
O=C(O)[C@@H](O)[C@H](O)C(=O)O [D-Tartrate],maximal rate of Michaelis–Menten fit,hPHGDH [3]; [9],0.4125
